According to US7767194B2, “Optical diagnostic and therapeutic agents and compositions” (Mallinckrodt Inc., priority 2000, dated 2010):

What was measured:
[1] = tested on: Rat pancreatic acinar carcinoma expressing the SST-2 receptor (CA20948); assay: Non-invasive in vivo fluorescence imaging of rat pancreatic acinar carcinoma (CA20948)
Description: (§1) A non-invasive in vivo fluorescence imaging apparatus was employed to assess the efficacy of contrast agents developed for tumor detection in animal models. A LaserMax Inc. laser diode of nominal wavelength 780 nm and nominal power of 40 mW was used. The detector was a Princeton Instruments model RTE/CCD-1317-K/2 CCD camera with a Rodenstock 10 mm F2 lens (stock #542.032.002.20) attached. An 830 nm interference […] (CVI Laser Corp., part # F10-830-4-2) was mounted in front of the CCD input lens such that only emitted fluorescent light from the contrast agent was imaged. Typically, an image of the animal was taken pre-injection of contrast agent. This image was subsequently subtracted (pixel by pixel) from the post injection images. However, the background subtraction was […] done once the animal had been removed from the sample area and returned at a later time for images taken several hours post injection.
DSL 6A tumors were induced in male Lewis rats in the left flank area by the introduction of material from a solid (donor) implant and the tumors were palpable in approximately 14 days. The animals were anesthetized with xylazine; ketamine; acepromazine 1.5:1.5:0.5 at 0.8 mL/kg via intramuscular injection. The area of the tumor (left flank) was shaved to expose tumor and surrounding surface area. A 21 gauge butterfly equipped with a stopcock and two syringes containing heparinized saline was placed into the later tail vein of the rat. Patency of the vein was checked prior to administration of the ICG via the butterfly apparatus. Each animal received […] of a 0.42 mg/mL solution of ICG in water.
The imaging apparatus and the procedure used are described in Example 12. Rat pancreatic acinar carcinoma expressing the SST-2 receptor (CA20948) was induced by solid implant technique in the left flank area, and palpable masses were detected nine days post implant. The images obtained at 2 and 30 minutes post injection are shown in FIG. 7E-F. FIGS. 7E-F are images of a rat with an induced pancreatic acinar carcinoma (CA20948) expressing the SST-2 receptor imaged at two minutes (FIG. 7E) and 30 minutes (FIG. 7F) post injection.
The imaging apparatus and the procedure used are described in Example 12 except that each animal received 500 μl of a 1.0 mg/mL solution of Cytate 1 solution of 25% dimethylsulfoxide in water.
Rat pancreatic acinar carcinoma expressing the SST-2 receptor (CA20948) were induced by solid implant technique in the left flank area, and palpable masses were detected 24 days post implant. Images were obtained at various times post injection.
Cytate 1 was evaluated in the CA20948 Lewis rat model. […] At 27 hours post injection, the animal was again imaged (FIG. 9B).

[2] = Monitoring of the blood clearance profile of peptide-dye conjugates; assay type: in vivo; conditions: rat ear, bolus injection in lateral tail vein, 830 nm after excitation at 780 nm
Description: A laser of appropriate wavelength for excitation of the dye chromophore was directed into one end of a fiber optic bundle and the other end was positioned a few millimeters from the ear of a rat. A second fiber optic bundle was also positioned near the same ear to detect the emitted fluorescent light and the other end was directed into the optics and electronics for data collection. An interference filter (IF) in the collection optics train was used to select emitted fluorescent light of the appropriate wavelength for the dye chromophore.
After the animals had achieved the desired plane of anesthesia, a 21 gauge butterfly with 12″ tubing was placed in the lateral tail vein of each animal and flushed with heparinized saline. The animals were placed onto a heating pad and kept warm throughout the entire study. The lobe of the left ear was affixed to a glass microscope slide to reduce movement and vibration.
Incident laser light delivered from the fiber optic was centered on the affixed ear. Data acquisition was then initiated, and a background reading of fluorescence was obtained prior to administration of the test agent. […] This procedure was repeated with several dye-peptide conjugates in normal and tumor bearing rats. […] The data were analyzed using a standard sigma plot software program for a one compartment model.

[3] = Imaging of individual organs removed from CA20948 tumor-bearing rat; assay type: in vivo
Protocol: Individual organs were removed at about 24 hours post Cytate 1 administration and imaged.

[4] = tested on: Prostatic carcinoma tumor (Dunning R3327-H); assay: Non-invasive in vivo fluorescence imaging of prostatic carcinoma (R3327-H); design: species or system rat
[5] = tested on: DSL 6A tumors; assay: Non-invasive in vivo fluorescence imaging of pancreatic ductal adenocarcinoma (DSL 6A); design: species or system rat
Description: as §1
DSL 6A tumors were induced in male Lewis rats in the left flank area by the introduction of material from a solid (donor) implant and the tumors were palpable in approximately 14 days. The animals were anesthetized with xylazine; ketamine; acepromazine 1.5:1.5:0.5 at 0.8 mL/kg via intramuscular injection. The area of the tumor (left flank) was shaved to expose tumor and surrounding surface area. […]

[6] = CA20948 tumor, 45 minutes post injection
[7] = organ removed about 24 hours post administration
[8] = tissue removed about 24 hours post administration

Structure (SMILES) | localization of dye in the tumor ([1]; CA20948 Lewis rat model, 45 minutes post injection) | tumor visualization ([1]; CA20948 Lewis rat model, 27 hours post injection) | time course of uptake into the tumor ([1]; CA20948 tumor, 500 μl of 1.0 mg/mL in 25% dimethylsulfoxide in water) | uptake (dye fluorescence) in tumor at 45 minutes [1, 6] | persistence of dye fluorescence in the tumor ([1]; CA20948 tumor, post-injection) | fluorescence signal in blood after injection (rise) [2] | fluorescence signal in blood over time (clearance) [2] | uptake in adrenals [3, 7] | uptake in heart [3, 7] | uptake in liver [3, 7] | uptake in pancreas [3, 7] | uptake in spleen [3, 7] | uptake in muscle [3, 8] | uptake in tumor tissue [3, 8] | perfusion of the agent into the tumor ([1]; CA20948 (pancreatic) tumor line, CCD camera) | dye intensity in the tumor ([1]; CA20948 tumor, 30 minutes post-ICG injection (vs two minutes)) | perfusion of the agent into the tumor ([4]; Dunning R3327H (prostate) tumor line, CCD camera) | dye intensity in the tumor ([4]; R3327-H tumor, Copenhagen rats, 30 minutes post-ICG injection (vs two minutes)) | perfusion of the agent into the tumor ([5]; DSL 6/A (pancreatic) tumor line, CCD camera) | dye intensity in the tumor ([5]; DSL 6A tumor, male Lewis rats, 30 minutes post-ICG injection (vs two minutes), tail vein bolus 0.5 ml aqueous solution)
C[C@@H](O)[C@H](NC(=O)[C@@H]1CSSC[C@H](NC(=O)[C@@H](Cc2ccccc2)NC(=O)CCN2C(=CC=CC=CC=CC3=[N+](CCC(=O)O)c4ccc5ccccc5c4C3(C)C)C(C)(C)c3c2ccc2ccccc32)C(=O)N[C@@H](Cc2ccc(O)cc2)C(=O)N[C@H](Cc2c[nH]c3ccccc23)C(=O)N[C@@H](CCCCN)C(=O)N[C@@H]([C@@H](C)O)C(=O)N1)C(=O)O [Cytate 1, monoOctreotate-Bismethylcarboxymethylindocyanine dye] | localization of this dye was observed in the tumor | easily observed | seen at two minutes but was not maximal until about five minutes | still quite intense | remained intense in the tumor for several hours | rapidly increased to a peak value | decayed as a function of time | high uptake | significantly lower uptake | significantly lower uptake | high uptake | significantly lower uptake | significantly lower uptake | high uptake |  |  |  |  |  | 
C[C@@H](O)[C@H](NC(=O)[C@@H]1CSSC[C@H](NC(=O)[C@@H](Cc2ccccc2)NC(=O)CCN2C(=CC=CC=CC=CC3=[N+](CCC(=O)N[C@H](Cc4ccccc4)C(=O)N[C@H]4CSSC[C@@H](C(=O)N[C@H](C(=O)O)[C@@H](C)O)NC(=O)[C@H]([C@@H](C)O)NC(=O)[C@H](CCCCN)NC(=O)[C@@H](Cc5c[nH]c6ccccc56)NC(=O)[C@H](Cc5ccc(O)cc5)NC4=O)c4ccc5ccccc5c4C3(C)C)C(C)(C)c3c2ccc2ccccc32)C(=O)N[C@@H](Cc2ccc(O)cc2)C(=O)N[C@H](Cc2c[nH]c3ccccc23)C(=O)N[C@@H](CCCCN)C(=O)N[C@@H]([C@@H](C)O)C(=O)N1)C(=O)O [Cytate 2, bisOctreotate-Bismethylcarboxymethylindocyanine dye] |  |  |  |  |  | rapidly increased to a peak value | decayed as a function of time |  |  |  |  |  |  |  |  |  |  |  |  | 
CC1(C)C(/C=C/C=C/C=C/C=C2\N(CCCCS(=O)(=O)O)c3ccc4ccccc4c3C2(C)C)=[N+](CCCCS(=O)(=O)[O-])c2ccc3ccccc3c21 [ICG, indocyanine green] |  |  |  | mostly cleared |  |  |  |  |  |  |  |  |  |  | only a slight but transient perfusion that was absent after only 30 minutes post injection | considerably diminished and almost absent | slow perfusion of the agent over time into the tumor | considerably diminished | slow perfusion of the agent over time into the tumor | considerably diminished
